Reference: US11389446B2, “Theranostic agents” (THE HONG KONG UNIVERSITY OF SCIENCE AND TECHNOLOGY, priority 2017, dated 2022)

Key:
Type in all cases: physicochemical
[1] = Photostability under continuous 808 nm laser irradiation; conditions: PBS pH 7.4, 808 nm laser 0.8 W/cm^2, 15 min
Method: (§1) For the photostability study, PBS solutions (pH 7.4) of TPA-T-TQ ONPs and ICG were irradiated under 808-nm laser (0.8 W/cm^2), and the absorption spectra were measured at different time points. For the anti-photobleaching study, the temperatures of the sample solutions were recorded during five circles of heating and cooling. In one heating-cooling circle, the NIR laser first irradiated the samples for 5 min to reach a steady state, then the laser was removed and the samples were naturally cooled down to ambient temperature in 6 min.
(§2) For the RONS-stability study, two kinds of RONS were used, i.e., ONOO^− and .OH, which were prepared according to the literature. The absorption and photoluminescence spectra were recorded before and after addition of 0.4 mM of RONS. […] Then the photostability of TPA-T-TQ ONPs was evaluated along with ICG under continuous 808 nm laser irradiation (0.8 W/cm^2) by recording the apparent colors and absorption spectra after laser irradiation for different times. […]
(§3) Then, the anti-photobleaching properties of TPA-T-TQ ONPs and ICG were evaluated by alternative heating and cooling processes (the NIR laser first irradiated the samples for 5 min to heat them up, then the laser was removed, and the samples were naturally cooled down to ambient temperature in 6 min).

[2] = Anti-photobleaching study, five circles of heating-cooling; conditions: 100 μM, 808 nm 0.8 W/cm^2
Method: as §1, §3

RONS-stability study = conditions: PBS, ICG read at 780 nm
Method: For the RONS-stability study, two kinds of RONS were used, i.e., ONOO^− and .OH, which were prepared according to the literature. The absorption and photoluminescence spectra were recorded before and after addition of 0.4 mM of RONS. The stabilities of the contrast agents in terms of thermal and photothermal stabilities as well as photobleaching and RONS resistances are crucial for PAI/PTT applications in vivo because incorrect or misleading signals, weakened therapeutic efficacy, and harmful side effects can result if the structure of the agent is destroyed, especially in living systems. Thermogravimetric analysis (TGA) was first carried out to measure the thermal stability of TPA-T-TQ. The decomposition temperature for 5% weight loss of TPA-T-TQ was above 400° C. […] Then the photostability of TPA-T-TQ ONPs was evaluated along with ICG under continuous 808 nm laser irradiation (0.8 W/cm^2) by recording the apparent colors and absorption spectra after laser irradiation for different times. […]
Another important issue related to in vivo applications is the physiological stability against highly reactive molecules such as RONS. […] Therefore, the stability of TPA-T-TQ ONPs and ICG in the presence of two kinds of RONS, peroxynitrite (ONOO^−) and hydroxyl radical (.OH), were measured under physiological conditions. […]

[3] = Photothermal performance in PBS under 808 nm laser; conditions: PBS pH 7.4, 100 μM, 808 nm laser 0.8 W/cm^2, 5 min
Method: The PBS solution (pH 7.4) of TPA-T-TQ ONPs and ICG in different concentrations were continuously exposed to NIR laser of 808 nm with a power intensity of 0.8 W/cm^2 for 5 min. The temperature was measured every 20 s and stopped until the temperature nearly reached a plateau. The corresponding IR thermal images were also recorded. To evaluate the photothermal conversion property, we quantitatively measured the temperature change of TPA-T-TQ ONP solution at different concentrations as a function of 808 nm laser (0.8 W/cm^2) irradiation time. As depicted in FIG. 9B, temperature increases very fast initially, and reaches a plateau after 3 min laser irradiation. It is noted that the eventual temperature at the plateau depends on the ONP concentration. The temperature increase of ONPs and ICG solutions upon exposure to 808 nm laser irradiation was compared. […] The difference in temperature elevation of the two samples at various irradiation times can be intuitively visualized from the infrared (IR) thermal images (FIG. 9A).

[4] = Thermogravimetric analysis (TGA), thermal stability; conditions: heating rate 10° C./min, nitrogen atmosphere
Method: ^1H (400 MHz) and ^13C (100 MHz) nuclear magnetic resonance (NMR) spectra were recorded on a Bruker AV 400 spectrometer by using CDCl3 or DMSO-d6 as the solvent. High-resolution mass spectra (HRMS) were measured on a GCT premier CAB048 mass spectrometer in MALDI-TOF mode. Thermogravimetric analysis (TGA) measurement was conducted on a TA TGA Q5000 with a heating rate of 10° C./min under nitrogen atmosphere. The UV-vis-NIR absorption spectra were performed on a PerkinElmer Lambda 365 spectrophotometer. The photoluminescence (PL) spectra were conducted using a Horiba Fluorolog-3 spectrofluorometer. Dynamic light scattering (DLS) was performed on a 90 plus particle size analyzer. Transmission electron microscopy (TEM) images were obtained on a JEM-2010F transmission electron microscope with an accelerating voltage of 200 kV.
as §2

[5] = after two circles of heating-cooling

SMILES | colors and absorption spectra / maximal absorption intensity after NIR light irradiation [1] | temperature elevation relative to the original value [2, 5] | temperature elevation ΔT after two circles [2, 5] [°C] | temperature elevation ΔT, original value ([2]; first heating) [°C] | maximal absorption intensity relative to the original value after .OH (RONS-stability study; 400 μM .OH for 1 min) [%] | maximal absorption intensity relative to the original value after ONOO^− (RONS-stability study; 400 μM ONOO^− for 1 min) | temperature increase ΔT in 5 min [3] [°C] | decomposition temperature for 5% weight loss [4]
CC1(C)C(/C=C/C=C/C=C/C=C2\N(CCCCS(=O)(=O)O)c3ccc4ccccc4c3C2(C)C)=[N+](CCCCS(=O)(=O)[O-])c2ccc3ccccc3c21 [ICG, indocyanine green] | nearly drops to zero | about 20% | ~10 | ~44 | ~4 | about 60% | ~43 | –
Cc1ccc(N(c2ccc(-c3ccc(-c4c5nsnc5c(-c5ccc(-c6ccc(N(c7ccc(C)cc7)c7ccc(C(C)(C)C)cc7)cc6)s5)c5nc(-c6ccccc6)c(-c6ccccc6)nc45)s3)cc2)c2ccc(C(C)(C)C)cc2)cc1 [TPA-T-TQ, 4,4′-((6,7-Diphenyl-[1,2,5]thiadiazolo[3,4-g]quinoxaline-4,9-diyl)bis(thiophene-5,2-diyl))bis(N-(4-(tert-butyl)phenyl)-N-(p-tolyl)aniline)] | – | – | – | – | – | – | – | above 400 °C
